These results are taken from PMC10611619, “[^99mTc]Tc-PentixaTec: development, extensive pre-clinical evaluation, and first human experience” (European Journal of Nuclear Medicine and Molecular Imaging, 2023).

Like-named read-outs stand apart in the source and are kept apart here. Where a SMILES comes first, the peptide text is derived from it. Bridges are numbered along the chain shown (N, C = ends). Roman numbers before positions name the chains, in order. Side-chain parts run from the residue outwards. [ ]: non-standard residue; d: D form. The star is where a group is joined. DOTA = O=C(O)CN1CCN(CC(=O)O)CCN(CC(=O)*)CCN(CC(=O)O)CC1; dTyr(3-I) = N[C@H](Cc1ccc(O)c(I)c1)C(=O)O; 2Nal = N[C@@H](Cc1ccc2ccccc2c1)C(=O)O; dNMeOrn = CN[C@H](CCCN)C(=O)O; HYNIC = NNc1ccc(C(=O)*)cn1; 4Amb = NCc1ccc(C(=O)O)cc1; Mercaptoacetyl = O=C(CS)*; 4Abz = Nc1ccc(C(=O)O)cc1; dDap = NC[C@@H](N)C(=O)O

For data set [1] the following is noted: in vivo; cited from earlier work.
The nature of data set [2]: Lipophilicity (logD), shake-flask n-octanol/PBS pH 7.4. The data set is classed as physicochemical. The protocol:
The lipophilicity (logD, partition coefficient between n-octanol and PBS, pH 7.4) of all ^99mTc-labeled compounds in this study was determined using a modified shake-flask method as described.

In data set [3] the test system is Jurkat xenograft bearing CB17/SCID mice. The data set is described as follows: Biodistribution in Jurkat xenograft-bearing mice, 1 h p.i. It is filed as in vivo. As to conditions: Jurkat xenograft, n = 5, mean ± SD. The protocol:
(§1) Female CB17/SCID mice bearing subcutaneous Jurkat human T cell lymphoma xenografts (for more detailed information, see supplemental material) were injected intravenously with the respective ^99mTc-labeled tracer (5–20 MBq, 0.1–0.2 nmol/mouse) under isofluorane anesthesia and were sacrificed at 1 h post-injection (p.i.). The organs of interest were dissected, and the activity concentration in weighed tissue samples was quantified using a WIZARD^2® 2480 automatic γ-Counter from Perkin Elmer (Waltham MA, USA). Biodistribution data are given in %iD/g and represent means ± SD (groups of n = 4–5 animals). Statistical analysis (t-test) was performed using GraphPad Prism.
(§2) To establish tumor xenografts, Jurkat cells (2 – 3x10^7 cells) were suspended in a mixture of RPMI 1640 medium and Matrigel (1/1; v/v) (BD Biosciences, Heidelberg, Germany), and injected subcutaneously into the right shoulder of 6–10 weeks old CB17-SCID mice from either Charles River GmbH (Sulzfeld, Germany) or the in-house mouse breeding facility. As soon as tumors had grown to a diameter of 5–8 mm (4 – 10 weeks after inoculation), mice were used for the experiments.

Experiment in data set [4]: as above
It is filed as in vivo. The settings on record: female, CB17/SCID, mouse, iv, total radioactivity, n = 5, mean ± SD. The protocol: as §1, §2

In data set [5] the test system is hCXCR4 expressing Chem-1 cells. In words: Dual tracer internalization studies with [^125I]FC-131 as internal reference. It is filed as cell-based, human. As to conditions: for internalization in % of total activity / Internalization (% of reference): 90 min; for Internalization (% of reference): normalized to specific internalization of [^125I]FC-131, Chem-1 cells; for internalization area under the curve (AUC): internalization kinetics, Fig. 1. As for the experimental part: Dual tracer internalization studies using [^125I]FC-131 as internal reference were conducted in hCXCR4 expressing Chem-1 cells in analogy to a previously established protocol. A detailed assay protocol is provided in the supplementary material section.
On the day prior to the experiment, Chem-1 cells were seeded in 24-well-plates at a density of app. 1·10^5 cells per well. On the day of the experiment, the culture medium was removed and the cells were washed once with 250 µL of unsupplemented medium before being left to equilibrate in 200 µL of assay medium (DMEM/F-12 containing 5% BSA) at 37°C for a minimum of 15 min before the experiment. Cells were then coincubated with the respective ^99mTc-labeled compound of interest (0.2 nM) and [^125I]FC-131 (0.2 nM) in the absence (total binding) or presence (non-specific binding) of 100 µM AMD3100 for different time points up to 120 min at 37°C (n=3 wells, respectively, per time point). Incubation was terminated by placing the plate on an ice pack for app. 1 min and by subsequent removal of the incubation medium. Cells were thoroughly rinsed with 250 µL of HBSS. After washing twice with 250 µL of ice cold acid wash buffer (0.02 M NaOAc buffered with AcOH to pH = 5), cells were lysed with 250 µL of 1 N NaOH. The lysate was tranferred to vials and combined with 250 µL of HBSS used for rinsing the wells. Quantification of the amount of free, acid-releasable and internalized ^99mTc- and ^125I-activity was performed using dual isotope protocol on a WIZARD^2® 2480 automatic γ-Counter (Perkin Elmer, Waltham MA, USA).
All data were corrected for non-specific internalization in the presence of […] AMD3100 and were then normalized to the specific internalization observed of the standard radioligand [^125I]FC-131.

The test system of data set [6] is mCXCR4. The settings on record: Eµ-myc 1080 mouse lymphoma cells; cited from earlier work.
Data set [7] deals with human CXCR4 (hCXCR4) (Homo sapiens, UniProt P61073). The data set is described as follows: Competitive binding to hCXCR4 (IC50), Jurkat cells, [^125I]FC-131 as radioligand. The settings on record: [^125I]FC-131 radioligand.
Chain of human CXCR4 (hCXCR4) (P61073 whole entry): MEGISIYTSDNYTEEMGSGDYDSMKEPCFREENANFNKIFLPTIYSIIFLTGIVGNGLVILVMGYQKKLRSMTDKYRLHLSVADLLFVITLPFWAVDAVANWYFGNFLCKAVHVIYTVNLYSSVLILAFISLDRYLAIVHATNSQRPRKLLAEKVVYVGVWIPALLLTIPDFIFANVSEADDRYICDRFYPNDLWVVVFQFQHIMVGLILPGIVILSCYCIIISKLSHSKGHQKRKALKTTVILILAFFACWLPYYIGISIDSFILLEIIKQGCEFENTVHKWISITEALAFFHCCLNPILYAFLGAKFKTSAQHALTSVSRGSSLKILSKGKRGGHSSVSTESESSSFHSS

On to `CN1C(=O)[C@@H](Cc2ccc(O)cc2)NC(=O)CNC(=O)[C@H](Cc2ccc3ccccc3c2)NC(=O)[C@H](CCCNC(=N)N)NC(=O)[C@H]1CCCNC(=O)c1ccc(NN)nc1` [[^99mTc]Tc-HYNIC-CPCR4, cyclo(D-Tyr-N-Me-D-Orn([^99mTc]Tc-HYNIC)-Arg-2-Nal-G), metal not drawn] (cyclo([2Nal]G[dY][dNMeOrn](HYNIC)R)), for which, in data set [1], the “effective dose per unit of administered activity” value was 3.92E − 03 mSv/MBq. In data set [2], the “Lipophilicity (logD)” value is “− 1.84”.
On to `C[C@@H](NC(=O)[C@@H](CCCNC(=N)N)NC(=O)[C@@H](CN)NC(=O)c1ccc(NN)nc1)C(=O)Nc1ccc(C(=O)NCCC[C@@H]2C(=O)N[C@@H](CCCNC(=N)N)C(=O)N[C@@H](Cc3ccc4ccccc4c3)C(=O)NCC(=O)N[C@H](Cc3ccc(O)cc3)C(=O)N2C)cc1` [[^99mTc]Tc-HYNIC-L6-CPCR4, metal not drawn] (cyclo([dY][dNMeOrn]([4Abz-dA-dR-dDap-HYNIC])R[2Nal]G)), for which the “Biodistribution Tumor (tumor accumulation)” value in data set [3] was 8.0 ± 2.2 %iD/g. The tissue uptake at 1 h in data set [4] (blood, read-out: Biodistribution Blood) was 1.6 ± 0.6 %ID/g; in data set [4] (femur, read-out: Biodistribution Femur) it was 0.8 ± 0.4 %ID/g; in data set [4] (heart, read-out: Biodistribution Heart), 0.8 ± 0.3 %ID/g; in data set [4] (intestines, read-out: Biodistribution Intestines) it was 0.6 ± 0.1 %ID/g; in data set [4] (kidneys, read-out: Biodistribution Kidneys), 29.5 ± 4.4 %ID/g; in data set [4] (liver, read-out: Biodistribution Liver) it was 2.6 ± 0.2 %ID/g. The tissue uptake at 1 h in data set [4] (lung, read-out: Biodistribution Lung) is 1.9 ± 0.4 %ID/g; in data set [4] (muscle, read-out: Biodistribution Muscle), 1.5 ± 1.1 %ID/g; in data set [4] (pancreas, read-out: Biodistribution Pancreas) it was 0.4 ± 0.3 %ID/g; in data set [4] (spleen, read-out: Biodistribution Spleen), 2.4 ± 1.1 %ID/g; in data set [4] (stomach, read-out: Biodistribution Stomach), 2 ± 0.7 %ID/g. The “internalization in % of total activity” value in data set [5] is on record as 77%. The “Internalization (% of reference)” value in data set [5] is 503 (90 min) % of reference. Moreover, the “internalization area under the curve (AUC)” value in data set [5] is listed as 2370.
Regarding `C[C@@H](NC(=O)[C@@H](CCCNC(=N)N)NC(=O)[C@@H](CN)NC(=O)[C@@H](CO)NC(=O)[C@@H](CO)NC(=O)[C@@H](CO)NC(=O)CS)C(=O)Nc1ccc(C(=O)NCCC[C@@H]2C(=O)N[C@@H](CCCNC(=N)N)C(=O)N[C@@H](Cc3ccc4ccccc4c3)C(=O)NCC(=O)N[C@H](Cc3ccc(O)cc3)C(=O)N2C)cc1` [[^99mTc]Tc-mas3-L6-CPCR4, metal not drawn] (I: Mercaptoacetyl-[dS][dS][dS][dDap][dR][dA][4Abz] / II: cyclo([dY][dNMeOrn]R[2Nal]G); amide I:C-II:2), the “Biodistribution Tumor (tumor accumulation)” value in data set [3] was determined as 6.6 ± 1.0 %iD/g. Besides, in data set [5], the “internalization in % of total activity” value is 80%, the “Internalization (% of reference)” value is recorded as 525 (90 min) % of reference and the “internalization area under the curve (AUC)” value was 2430.
For the molecule `CN1C(=O)[C@@H](Cc2ccc(O)c(I)c2)NC(=O)CNC(=O)[C@H](Cc2ccc3ccccc3c2)NC(=O)[C@H](CCCNC(=N)N)NC(=O)[C@H]1CCCNC(=O)c1ccc(CNC(=O)CN2CCN(CC(=O)O)CCN(CC(=O)O)CCN(CC(=O)O)CC2)cc1` [^natLu-PentixaTher, metal not drawn] (cyclo([dTyr(3-I)][dNMeOrn]([4Amb-DOTA])R[2Nal]G); ring closure inferred), in data set [6], the IC50 was 567 ± 62 nM.
`C[C@@H](NC(=O)[C@@H](CCCNC(=N)N)NC(=O)[C@@H](CN)NC(=O)[C@@H](CO)NC(=O)[C@@H](CO)NC(=O)[C@@H](CO)NC(=O)CS)C(=O)Nc1ccc(C(=O)NCCC[C@@H]2C(=O)N[C@@H](CCCNC(=N)N)C(=O)N[C@@H](Cc3ccc4ccccc4c3)C(=O)NCC(=O)N[C@H](Cc3ccc(O)cc3)C(=O)N2C)cc1` [mas3-L6-CPCR4, mas3-dap-r-a-Abz-CPCR4] (I: Mercaptoacetyl-[dS][dS][dS][dDap][dR][dA][4Abz] / II: cyclo([dY][dNMeOrn]R[2Nal]G); amide I:C-II:2): the IC50 in data set [7] was 5 ± 1.3 nM.
